Measurements reported in PMC4532830, “Crystal structure, biochemical and cellular activities demonstrate separate functions of MTH1 and MTH2” (Nature Communications, 2015).
Like-named read-outs stand apart in the source and are kept apart here. One block for each molecule: values may come before it.

Tests used:
MTH1 = biological target: T1, MTH1 (Homo sapiens, UniProt P36639); details: pH 7.5 but methods buffer pH 8.0, 10 mM Mg acetate, unit assumed
T1 construct: gene NUDT1

NUDT18 = biological target: T2, NUDT18 (Homo sapiens, UniProt Q6ZVK8); assay: phosphate release, malachite green assay; type: biochemical; details: 50 uM nucleotide, 25 nM enzyme, 22 C, 30 min, pH 8.0, 10 mM Mg acetate; which of 8-oxo-dGTP or 8-oxo-dGDP belongs to NUDT18 is not spelt out
T2 construct: recombinant, cDNA codon-optimized for E. coli in pET28a(+); His-tag removed by TEV or thrombin
T2 sequence (Q6ZVK8 1-323): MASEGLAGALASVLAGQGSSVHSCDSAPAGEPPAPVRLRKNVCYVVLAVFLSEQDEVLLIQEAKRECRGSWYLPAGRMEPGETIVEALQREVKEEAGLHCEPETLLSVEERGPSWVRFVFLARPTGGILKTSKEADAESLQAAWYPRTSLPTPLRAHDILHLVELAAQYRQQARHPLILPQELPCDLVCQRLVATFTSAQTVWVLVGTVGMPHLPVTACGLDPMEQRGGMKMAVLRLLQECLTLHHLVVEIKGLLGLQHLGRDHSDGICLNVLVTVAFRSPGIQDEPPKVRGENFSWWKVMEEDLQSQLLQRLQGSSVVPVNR

[1] = biological target: the molecule itself; assay: SEC; 10/300 GL S75 column, 20 mM HEPES pH 7.5, 300 mM NaCl, 10% glycerol, 0.5 mM TCEP; 0.24 mg NUDT15 in 500 ul

Molecule: Nc1nc2c([nH]c(=O)n2[C@H]2C[C@H](O)[C@@H](COP(=O)(O)OP(=O)(O)O)O2)c(=O)[nH]1 [8-oxo-dGDP]
- phosphate release, malachite green assay (NUDT18): NUDT15 and NUDT18 have the ability to hydrolyse 8-oxo-dGTP or 8-oxo-dGDP in biochemical assays

B1: NUDT15 (enzyme, human, UniProt Q9NV35 1-164, looked up)
chain: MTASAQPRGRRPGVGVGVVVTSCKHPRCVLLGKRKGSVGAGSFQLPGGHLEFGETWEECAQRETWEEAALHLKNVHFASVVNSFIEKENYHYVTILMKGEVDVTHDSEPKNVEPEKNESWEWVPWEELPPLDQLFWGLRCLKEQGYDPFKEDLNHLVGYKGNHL
notes: NUDT15 (MTH2), human, full length; expression construct pNIC28hNUDT15 from the Structural Genome Consortium; The His-tag was removed by TEV protease or thrombin; Crystals grew in the presence of alpha-chymotrypsin, so the chain in the crystal may be shorter than full length; also called MTH2; MutT homologue 2; source: E. coli BL21 (DE3) T1R pRARE2, purified (HisTrap HP, gel filtration Superdex 75)
- stoichiometry N [1]: 2

Other lines, results leading:

- Km (MTH1; 0-400 uM dGTP, 2 nM enzyme): 110 ± 35 µM
Molecule: Nc1nc2c(ncn2[C@H]2C[C@H](O)[C@@H](COP(=O)(O)OP(=O)(O)OP(=O)(O)O)O2)c(=O)[nH]1 [dGTP, 2′-Deoxyguanosine-5′-triphosphate]

- Km (MTH1; 0-100 uM 8-oxo-dGTP, 0.25 nM enzyme): 10.2 ± 0.8 µM
Molecule: Nc1nc2c([nH]c(=O)n2[C@H]2C[C@H](O)[C@@H](COP(=O)(O)OP(=O)(O)OP(=O)(O)O)O2)c(=O)[nH]1 [8-oxo-dGTP]
